This note sets out measurements from ChEMBL document CHEMBL5614456, “Emerging Techniques in Cancer Therapy: Precision Targeting for Improved Outcomes” (ACS Med Chem Lett, 2024).

Structures are written as SMILES.

A short description of the test: Inhibition of ERK phosphorylation at Thr202/Tyr204 residues in human ASPC1 cells harboring KRAS G12D mutant […] incubated for 24 hrs by ELISA. The format is cell-based. Particulars: ASPC1, 24 h. Background: An ELISA detects its analyte on a solid surface through an enzyme-linked reagent.
As to `Cc1c(F)cc2c(cnn2C2CCCCO2)c1-c1c(C2CC2)cc2c(N3C[C@@H]4C[C@H]3CN4C(=O)OC(C)(C)C)nc(OC3COC3)nc2c1OCc1ccccc1` (stereo partly drawn), the IC50 was 0.006 µM.

In the case of `Cc1c(F)cc2c(cnn2C2CCCCO2)c1-c1c(C2CC2)cc2c(N3C[C@@H]4C[C@H]3CN4C(=O)OC(C)(C)C)nc(OC3CCOCC3)nc2c1OCc1ccc(-c2cn([C@H](C(=O)N3C[C@H](O)C[C@H]3C(=O)N[C@H](CO)c3ccc(-c4ccnn4C)cc3)C(C)C)nn2)cc1` (stereo partly drawn), the half-maximal inhibitory concentration (IC50) stood at 0.011 µM.

`Cc1ncsc1-c1ccc([C@@H](CO)NC(=O)[C@@H]2C[C@@H](O)CN2C(=O)[C@H](C(C)C)n2cc(-c3ccc(COc4c(-c5c(C)c(F)cc6c5cnn6C5CCCCO5)c(C5CC5)cc5c(N6C[C@@H]7C[C@H]6CN7C(=O)OC(C)(C)C)nc(OC6CCOCC6)nc45)cc3)nn2)cc1` (stereo partly drawn): the IC50 was determined as 0.008 µM.

As to `CC(C)(C)OC(=O)N1C[C@@H]2C[C@H]1CN2c1nc(OC2CCOCC2)nc2c(OCc3ccccc3)c(Br)c(C3CC3)cc12`, the IC50 turned out to be 0.015 µM.

Consider `Cc1ncsc1-c1ccc(C2(NC(=O)[C@@H]3C[C@@H](O)CN3C(=O)[C@H](C(C)C)n3cc(-c4ccc(COc5c(-c6c(C)c(F)cc7c6cnn7C6CCCCO6)c(C6CC6)cc6c(N7C[C@@H]8C[C@H]7CN8C(=O)OC(C)(C)C)nc(OC7CCOCC7)nc56)cc4)nn3)CC2)cc1` (stereo partly drawn), for which the IC50 was determined as 0.007 µM.

For the compound `CCSc1nc(N2C[C@@H]3C[C@H]2CN3C(=O)OC(C)(C)C)c2cc(C3CC3)c(Br)c(OCc3ccccc3)c2n1`, the 50% inhibitory concentration (IC50) worked out at 0.026 µM.

As for `CCCCCCCCCCCCSc1nc(N2C[C@@H]3C[C@H]2CN3C(=O)OC(C)(C)C)c2cc(C3CC3)c(Br)c(OCc3ccccc3)c2n1`, the IC50 stood at 0.018 µM.

Take `CCSc1nc(N2C[C@@H]3C[C@H]2CN3C(=O)OC(C)(C)C)c2cc(I)c(Br)c(OCc3ccccc3)c2n1`: the IC50 is 0.017 µM.

By IC50 is commonly meant the concentration needed to halve the response being measured.
